The IC50 is the concentration that inhibits the measured activity by half. As usually defined, the GI50 is the concentration giving 50% growth inhibition.

These results are taken from patent US11149062B2, “HDAC inhibitors and methods of treatment using the same” (UWM Research Foundation, Inc., priority 2015, dated 2021).

One experiment deals with T1, Recombinant human HDAC1 (Homo sapiens, UniProt Q13547).
T1 construct: purchased BPS Bioscience Inc
Put plainly: HDAC-Glo I/II assay, HDAC1. The following applies: for IC50: Class I HDAC, compounds reduced by TCEP prior to assay, read-out: IC50 of HDAC1; for Class I selectivity Ratio HDAC 1/HDAC8: ratio of IC50 values. The class given is biochemical. As for the experimental part: (§1) The purified compounds of all fragments and natural product derivatives were evaluated for inhibitory effects on three different classes of HDAC proteins (class I, IIa, and IIb). […] All activity was determined by using a fluorescence-based in vitro assay. Class I HDAC proteins that were evaluated were HDAC1, HDAC2, HDAC3, HDAC8, HDAC4, and HDAC6. Class IIa HDAC protein were HDAC4 and the Class IIb HDAC protein were HDAC6.
HDAC-Glo™ I/II Assay and Screening System (Promega) was used to determine the HDAC inhibitory activity. Recombinant human HDAC1, HDAC2, HDAC3, HDAC4, HDAC6 and HDAC8 were purchased from BPS Bioscience Inc. The inhibitory activities of the test compounds against recombinant HDAC were performed according to reagent suppliers' protocols.
All test compounds were firstly dissolved in DMSO to make 10 mM stock solution. A certain amount of stock solution was diluted to 1 mM by DMSO and then reduced by tris(2-carboxyethyl)phosphine hydrochloride (TCEP) in a molar ration of 1:1.5 for 20 min at ambient temperature prior to being assayed. After reduction, a series of fivefold dilutions of each reduced compound were prepared with HDAC-Glo buffer and 25 μL of each dilution was added into a well on a 96-well plate. HDAC enzymes were diluted to the desired concentrations with HDAC-Glo buffer and 25 μL of each diluted enzyme was dispensed into a well to mix with 25 μL of testing compound at room temperature for 30-60 seconds. After the reaction mixture had been incubated at room temperature for 1 hour, 50 μL of HDAC-Glo reagent was added to each reaction well and mixed up for 30-60 seconds. Finally, the plate was incubated at room temperature for an additional 30 minutes before the luminescence was measured on a Synergy HT plate reader (Bio-Tek). The luminescence intensity data were analyzed using GraphPad Prism 5 (GraphPad Software). In the absence of any test compound, the luminescence intensity (I100) in each data set was defined as 100% activity. In the absence of both of HDAC enzymes and test compound, the luminescence intensity (I0) in each data set was defined as 0% activity. The relative activity (%) in the presence of each compound was calculated according to the following equation: % activity=(I−I0)/(I100−I0), where I=the luminescence intensity if a compound is present in the reaction. Experiments were performed in triplicate and the calculated mean values were used for plotting.

In another experiment the test system is RFX393 (renal). Put plainly: MTT antiproliferative assay, RFX393. The class given is cell-based. The note with it: MTT, 48 h; read-out: Antiproliferative Activity GI50, Renal RFX393. For orientation: Tetrazolium dyes change colour on reduction, which living cells bring about.
For another experiment, the target named is T2, Recombinant human HDAC6 (Homo sapiens, UniProt Q9UBN7).
T2 construct: purchased BPS Bioscience Inc
T2 sequence (Q9UBN7 1-1215): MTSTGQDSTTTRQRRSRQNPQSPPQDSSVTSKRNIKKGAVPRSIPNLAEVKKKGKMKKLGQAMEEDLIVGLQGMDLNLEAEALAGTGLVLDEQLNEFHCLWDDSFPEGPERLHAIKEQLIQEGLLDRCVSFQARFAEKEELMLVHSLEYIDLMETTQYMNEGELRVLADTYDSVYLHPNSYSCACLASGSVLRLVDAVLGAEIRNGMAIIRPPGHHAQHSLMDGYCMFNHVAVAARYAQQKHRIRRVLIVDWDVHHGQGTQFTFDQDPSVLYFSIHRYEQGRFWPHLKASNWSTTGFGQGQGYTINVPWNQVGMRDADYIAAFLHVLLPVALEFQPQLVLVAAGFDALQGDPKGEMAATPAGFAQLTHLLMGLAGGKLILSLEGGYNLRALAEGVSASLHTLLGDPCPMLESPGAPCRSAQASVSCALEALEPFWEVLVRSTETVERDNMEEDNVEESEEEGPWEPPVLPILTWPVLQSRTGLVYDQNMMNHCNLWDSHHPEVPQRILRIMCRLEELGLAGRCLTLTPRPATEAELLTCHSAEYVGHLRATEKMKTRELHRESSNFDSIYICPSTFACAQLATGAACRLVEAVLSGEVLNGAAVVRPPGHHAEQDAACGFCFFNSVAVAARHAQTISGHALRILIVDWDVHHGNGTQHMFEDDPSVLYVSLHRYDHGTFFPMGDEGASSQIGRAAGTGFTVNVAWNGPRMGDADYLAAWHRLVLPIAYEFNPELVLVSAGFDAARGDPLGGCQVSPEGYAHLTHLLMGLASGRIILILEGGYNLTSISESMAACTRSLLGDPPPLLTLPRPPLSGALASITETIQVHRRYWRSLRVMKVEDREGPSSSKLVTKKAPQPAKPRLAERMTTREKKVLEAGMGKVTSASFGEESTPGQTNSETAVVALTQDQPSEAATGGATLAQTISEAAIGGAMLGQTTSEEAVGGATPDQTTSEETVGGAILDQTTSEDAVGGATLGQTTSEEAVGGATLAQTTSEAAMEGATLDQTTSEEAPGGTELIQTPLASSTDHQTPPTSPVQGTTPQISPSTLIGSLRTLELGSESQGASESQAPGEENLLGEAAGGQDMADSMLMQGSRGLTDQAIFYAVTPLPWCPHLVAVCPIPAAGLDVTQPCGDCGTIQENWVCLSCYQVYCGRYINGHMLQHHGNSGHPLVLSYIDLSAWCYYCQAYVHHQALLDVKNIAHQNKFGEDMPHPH
Put plainly: HDAC-Glo I/II assay, HDAC6. The class given is biochemical. As for the experimental part: as §1
HDAC-Glo™ I/II Assay and Screening System (Promega) was used to determine the HDAC inhibitory activity. […]
All test compounds were firstly dissolved in DMSO to make 10 mM stock solution. […] Finally, the plate was incubated at room temperature for an additional 30 minutes before the luminescence was measured on a Synergy HT plate reader (Bio-Tek). The luminescence intensity data were analyzed using GraphPad Prism 5 (GraphPad Software). In the absence of any test compound, the luminescence intensity (I100) in each data set was defined as 100% activity. In the absence of both of HDAC enzymes and test compound, the luminescence intensity (I0) in each data set was defined as 0% activity. The relative activity (%) in the presence of each compound was calculated according to the following equation: % activity=(I−I0)/(I100−I0), where I=the luminescence intensity if a compound is present in the reaction. […]

T1 sequence (Q13547 whole entry): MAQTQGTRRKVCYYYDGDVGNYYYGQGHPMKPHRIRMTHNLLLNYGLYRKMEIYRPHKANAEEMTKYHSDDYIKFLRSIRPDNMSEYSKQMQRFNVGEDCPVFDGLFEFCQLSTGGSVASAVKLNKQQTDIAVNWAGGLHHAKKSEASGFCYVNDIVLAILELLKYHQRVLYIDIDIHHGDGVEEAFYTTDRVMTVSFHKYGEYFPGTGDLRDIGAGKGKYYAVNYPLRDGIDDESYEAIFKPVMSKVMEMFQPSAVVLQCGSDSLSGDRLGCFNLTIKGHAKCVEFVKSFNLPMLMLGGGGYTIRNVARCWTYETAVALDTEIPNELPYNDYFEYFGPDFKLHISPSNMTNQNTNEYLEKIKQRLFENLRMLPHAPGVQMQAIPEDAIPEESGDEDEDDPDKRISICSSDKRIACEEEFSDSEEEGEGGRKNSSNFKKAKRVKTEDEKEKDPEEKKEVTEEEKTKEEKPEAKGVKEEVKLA

Take `CSCC[C@H]1NC(=O)CC(O)/C=C/CCSSC[C@H](C(=O)O)NC1=O` (stereo partly drawn) [TDF3, (4S,7R,12E)-11-hydroxy-7-[2-(methylsulfanyl)ethyl]-6,9-dioxo-1,2-dithia-5,8-diazacyclopentadec-12-ene-4-carboxylic acid]: at Recombinant human HDAC1, the IC50 amounted to 22.9 nM and the “Class I selectivity Ratio HDAC 1/HDAC8” value is recorded as 0.00036. Further, the GI50 in the experiment on RFX393 (renal) came to 200 nM. Further, the “inhibitory activity toward HDAC6 (in words)” value on Recombinant human HDAC6 is “no inhibitory activity”.
The matching figures for `COC(=O)[C@H]1CSSCC/C=C/C(O)CC(=O)N[C@H](CCSC)C(=O)N1` (stereo partly drawn) [TDF3m, Methyl (4S,7R,12E)-11-hydroxy-7-[2-(methylsulfanyl)ethyl]-6,9-dioxo-1,2-dithia-5,8-diazacyclopentadec-12-ene-4-carboxylate]: 12.5 nM, 0.00028, 300 nM and “no inhibitory activity”.
